The test can be described thus: Inhibition of acetyl-coenzyme A carboxylase. Particulars: read-out: I50.
For `CCO/N=C(\CC)C1=C(O)CC(c2c(C)cc(C)cc2C)CC1=O` (stereo not drawn) [TRALKOXYDIM], the IC50 stood at 1 µM.
As for `O=C1C(c2ccc(Cl)cc2Cl)=C(O)N2CCCCC12` (stereo not drawn), the IC50 worked out at 15 µM.
The figure for `C=CCO/N=C(\CCC)C1=C(O)N2CCCCC2C1=O` (stereo not drawn) is 80 µM.

The values above are taken from ChEMBL document CHEMBL3046341, “Synthesis of an indolizidinedione oxime inhibitor of acetyl-coenzyme a carboxylase (ACCase)” (Bioorg Med Chem Lett, 1994).
